{"source": "paper PMC8320612", "about": "(Current Research in Toxicology, 2021)", "key": {"[1]": {"biological_target": "T1, thyroid peroxidase (TPO), rat thyroid microsomes (Rattus norvegicus, UniProt P14650)", "T1 sequence (P14650 32-914)": "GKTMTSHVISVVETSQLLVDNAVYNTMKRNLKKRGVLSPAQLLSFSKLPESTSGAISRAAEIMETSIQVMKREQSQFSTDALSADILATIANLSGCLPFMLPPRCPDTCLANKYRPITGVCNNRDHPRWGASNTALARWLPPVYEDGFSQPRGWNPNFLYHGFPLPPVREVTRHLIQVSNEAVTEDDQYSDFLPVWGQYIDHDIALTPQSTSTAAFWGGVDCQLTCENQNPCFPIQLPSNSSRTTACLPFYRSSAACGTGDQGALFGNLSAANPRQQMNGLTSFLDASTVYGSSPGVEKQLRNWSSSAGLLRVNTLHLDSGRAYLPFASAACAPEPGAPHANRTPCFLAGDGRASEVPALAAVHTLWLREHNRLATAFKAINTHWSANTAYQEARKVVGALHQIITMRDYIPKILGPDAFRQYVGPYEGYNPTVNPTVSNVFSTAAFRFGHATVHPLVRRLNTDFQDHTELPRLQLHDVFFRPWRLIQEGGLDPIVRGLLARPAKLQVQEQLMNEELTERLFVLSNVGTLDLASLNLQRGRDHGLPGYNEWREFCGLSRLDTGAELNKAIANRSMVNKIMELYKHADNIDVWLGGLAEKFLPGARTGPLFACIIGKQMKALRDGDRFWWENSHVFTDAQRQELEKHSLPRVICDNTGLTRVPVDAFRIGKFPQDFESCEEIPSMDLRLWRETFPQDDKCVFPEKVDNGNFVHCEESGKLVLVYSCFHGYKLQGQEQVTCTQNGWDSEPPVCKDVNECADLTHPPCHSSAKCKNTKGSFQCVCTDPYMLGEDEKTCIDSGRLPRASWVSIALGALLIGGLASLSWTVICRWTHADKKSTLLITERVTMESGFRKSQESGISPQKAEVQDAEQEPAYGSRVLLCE", "assay": "TPO activity assay, MIT to DIT monoiodination, LC-MS/MS", "type": "biochemical", "conditions": "result in words"}, "[2]": {"biological_target": "T1, thyroid peroxidase (TPO), rat thyroid microsomes", "assay": "Battery of TPO assays, summary of IC50 across reactions", "type": "biochemical"}}, "data": [{"compound": "O=c1c(-c2ccc(O)cc2)coc2cc(O)ccc12", "note": "[DZN, Daidzein]", "values": [{"measurement": "Effect on MIT to DIT iodination", "setting": "[1]", "value": "no adverse effects"}, {"measurement": "IC50", "setting": "[2]", "value": "19.7 to 57.3", "unit": "µM"}]}]}
